Test results taken from patent US20250017964A1, “ENGINEERING OR INDUCING PDGF AND/OR PDGFR SIGNALING TO ENHANCE NK CELL THERAPY” (City of Hope, priority 2021, published 2025).

Test system: NK cells
Assay: Annexin V and Ki67 staining of NK cells in vitro
Type: cell-based, human
Settings: PDGF-D 50 ng/ml 48 h without IL-15
Protocol: FIGS. 4A-4J. PDGFRβ promotes IL-15-mediated NK cell survival in vitro and in vivo. (A) 5×10^5 sorted PDGFRβ^+ (Pos) and PDGFRβ^− (Neg) NK cells were cultured in vitro for 7 days in the presence of IL-15 (10 ng/ml). The cells were counted via trypan blue exclusion assay on days 3, 5, and 7 (n=5). (B and C) On day 7, Ki67 levels in PDGFRβ^+ and PDGFRβ^− NK cells were determined by flow cytometry (n=5). (D and E) Annexin V levels in PDGFRβ^+ and PDGFRβ^− NK cells on day 7 were determined by flow cytometry (n=5). (H-J) 1×10^7 sorted PDGFRβ^+ or PDGFRβ^− IL-15-transduced NK cells were injected into NOD/SCID/IL-2rg (NSG) mice. Blood samples were collected for analysis at the indicated time after adoptive transfer. Data shown are representative dot plots on day 9 after adoptive transfer (H), percentages (I), and absolute numbers (J) of PDGFRβ^+ and PDGFRβ^− NK cells on days 3, 6, and 9 after adoptive transfer (n=5). Data represent three independent experiments. […]
FIGS. 6A-6M. […] Cells were counted on days 3, 5, and 7 (n=3). […] Cells were counted on days 3, 5, and 7 (n=3). […] The cells were counted by trypan exclusion assay on days 3, 5, and 7 (n=3). […] Cells were counted by trypan exclusion assay on days 3, 5, and 7 (n=3). […] Cells were counted by trypan exclusion assay on days 3, 5, and 7 (n=3). […] Cell apoptosis and proliferation were analyzed by annexin V staining (J) and Ki-67 staining (K), respectively. […]

Which “apoptosis of PDGFRβ^+ NK cells (annexin V)” value (IL-15-pretreated sorted cells) does the source give for “PDGF-D: recombinant human PDGF-DD (1159-SB-025), R&D Systems” here?
Its value is “inhibited apoptosis”.

What about the “NK cell proliferation (Ki67)” value of the same substance?
The value was “did not affect NK cell proliferation”.
